According to ChEMBL document CHEMBL5335856, “Structurally Diverse Alkaloids with Anti-Renal-Fibrosis Activity from the Centipede Scolopendra subspinipes mutilans” (J Nat Prod, 2024):
The source made the active and inactive calls. The rule behind the calls is not given here.

Columns and labels:
[1] = test system: RNA polymerase II-associated factor 1 homolog; test: Binding affinity to Paf1 (unknown origin) at 200 uM preincubated for 2 hrs followed by pronase addition and measured after 30 mins by coomassie blue staining based SDS-PAGE gel analysis; conditions: Homo sapiens
[2] = target: Chromobox protein homolog 5 (Homo sapiens) (UniProt P45973); test: Binding affinity to Cbx5 (unknown origin) assessed as fold change in protein upregulation at 200 uM preincubated for 2 hrs followed by pronase addition and measured after 30 mins by coomassie blue staining based SDS-PAGE gel analysis
Sequence of Chromobox protein homolog 5 (Homo sapiens) (P45973 whole entry): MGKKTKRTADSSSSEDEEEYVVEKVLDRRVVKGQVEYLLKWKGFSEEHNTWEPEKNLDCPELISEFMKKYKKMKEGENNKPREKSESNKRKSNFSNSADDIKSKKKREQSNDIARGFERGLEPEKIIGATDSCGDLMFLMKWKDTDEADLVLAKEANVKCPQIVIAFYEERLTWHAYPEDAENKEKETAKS

[3] = target: Protein FAM91A1 (Homo sapiens) (UniProt Q658Y4); test: Binding affinity to Fam91a1 (unknown origin) assessed as fold change in protein upregulation at 200 uM preincubated for 2 hrs followed by pronase addition and measured after 30 mins by coomassie blue staining based SDS-PAGE gel analysis
[4] = target: Glutathione hydrolase 7 (Homo sapiens) (UniProt Q9UJ14); test: Binding affinity to Ggt7 (unknown origin) at 200 uM preincubated for 2 hrs followed by pronase addition and measured after 30 mins by coomassie blue staining based SDS-PAGE gel analysis
[5] = target: Testin (Homo sapiens) (UniProt Q9UGI8); test: Binding affinity to Tes (unknown origin) assessed as fold change in protein upregulation at 200 uM preincubated for 2 hrs followed by pronase addition and measured after 30 mins by coomassie blue staining based SDS-PAGE gel analysis
[6] = target: ATP-dependent RNA helicase DHX8 (Homo sapiens) (UniProt Q14562); test: Binding affinity to Dhx8 (unknown origin) at 200 uM preincubated for 2 hrs followed by pronase addition and measured after 30 mins by coomassie blue staining based SDS-PAGE gel analysis
Sequence of ATP-dependent RNA helicase DHX8 (Homo sapiens) (Q14562 whole entry): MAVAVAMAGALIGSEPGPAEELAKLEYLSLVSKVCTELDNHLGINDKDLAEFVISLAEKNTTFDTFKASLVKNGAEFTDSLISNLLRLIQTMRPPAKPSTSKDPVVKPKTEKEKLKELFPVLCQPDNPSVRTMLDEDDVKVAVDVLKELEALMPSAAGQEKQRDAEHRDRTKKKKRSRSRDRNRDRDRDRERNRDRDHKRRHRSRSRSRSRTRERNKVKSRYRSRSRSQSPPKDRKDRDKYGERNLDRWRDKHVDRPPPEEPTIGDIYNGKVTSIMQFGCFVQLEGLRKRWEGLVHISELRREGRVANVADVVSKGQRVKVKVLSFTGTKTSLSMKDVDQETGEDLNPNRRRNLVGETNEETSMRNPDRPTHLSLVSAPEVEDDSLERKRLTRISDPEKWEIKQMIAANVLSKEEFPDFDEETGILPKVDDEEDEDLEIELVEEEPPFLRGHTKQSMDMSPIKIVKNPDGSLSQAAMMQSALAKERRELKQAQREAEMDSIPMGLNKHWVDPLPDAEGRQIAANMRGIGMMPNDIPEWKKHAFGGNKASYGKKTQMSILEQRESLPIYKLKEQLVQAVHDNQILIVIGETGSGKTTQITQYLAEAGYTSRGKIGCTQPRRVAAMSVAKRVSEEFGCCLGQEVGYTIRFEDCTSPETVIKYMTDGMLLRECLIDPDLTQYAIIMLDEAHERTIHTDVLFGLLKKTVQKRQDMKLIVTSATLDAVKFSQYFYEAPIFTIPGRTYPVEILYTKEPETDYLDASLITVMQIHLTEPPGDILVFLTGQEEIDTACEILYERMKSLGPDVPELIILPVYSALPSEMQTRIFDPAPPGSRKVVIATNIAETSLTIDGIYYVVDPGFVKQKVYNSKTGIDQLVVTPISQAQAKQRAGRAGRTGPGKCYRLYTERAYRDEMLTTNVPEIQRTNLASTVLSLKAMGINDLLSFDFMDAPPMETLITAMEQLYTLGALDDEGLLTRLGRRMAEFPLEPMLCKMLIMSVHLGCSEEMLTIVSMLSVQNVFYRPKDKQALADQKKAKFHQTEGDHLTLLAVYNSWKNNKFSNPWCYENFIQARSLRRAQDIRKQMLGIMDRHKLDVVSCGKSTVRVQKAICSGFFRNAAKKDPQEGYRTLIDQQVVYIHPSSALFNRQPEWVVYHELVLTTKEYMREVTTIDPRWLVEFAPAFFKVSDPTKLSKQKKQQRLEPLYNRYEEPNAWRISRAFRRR

[7] = test system: NRK-52E; test: Anti-renal-fibrosis activity in TGF-beta1 induced Lamp2 knocked down rat NRK-52E cells assessed as downregulation of fibronectin expression at 40 uM; type: functional, cell-based
[8] = target: Protein YIF1B (Homo sapiens) (UniProt Q5BJH7); test: Binding affinity to Yif1b (unknown origin) assessed as fold change in protein upregulation at 200 uM preincubated for 2 hrs followed by pronase addition and measured after 30 mins by coomassie blue staining based SDS-PAGE gel analysis
Sequence of Protein YIF1B (Homo sapiens) (Q5BJH7 whole entry): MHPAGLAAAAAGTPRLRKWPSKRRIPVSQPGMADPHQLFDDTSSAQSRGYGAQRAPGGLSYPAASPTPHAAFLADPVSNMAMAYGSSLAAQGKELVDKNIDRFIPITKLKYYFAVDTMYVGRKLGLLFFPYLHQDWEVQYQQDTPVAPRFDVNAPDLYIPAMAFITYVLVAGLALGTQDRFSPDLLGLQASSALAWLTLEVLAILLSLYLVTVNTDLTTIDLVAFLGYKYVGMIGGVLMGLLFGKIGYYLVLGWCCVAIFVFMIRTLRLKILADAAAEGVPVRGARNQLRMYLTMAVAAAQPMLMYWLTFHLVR

[9] = target: Ubiquitin-like modifier-activating enzyme 5 (Homo sapiens) (UniProt Q9GZZ9); test: Binding affinity to Uba5 (unknown origin) at 200 uM preincubated for 2 hrs followed by pronase addition and measured after 30 mins by coomassie blue staining based SDS-PAGE gel analysis
[10] = target: Far upstream element-binding protein 1 (Homo sapiens) (UniProt Q96AE4); test: Binding affinity to Fubp1 (unknown origin) assessed as fold change in protein upregulation at 200 uM preincubated for 2 hrs followed by pronase addition and measured after 30 mins by coomassie blue staining based SDS-PAGE gel analysis
[11] = target: Transcription initiation factor TFIID subunit 6 (Homo sapiens) (UniProt P49848); test: Binding affinity to Taf6 (unknown origin) at 200 uM preincubated for 2 hrs followed by pronase addition and measured after 30 mins by coomassie blue staining based SDS-PAGE gel analysis
Sequence of Transcription initiation factor TFIID subunit 6 (Homo sapiens) (P49848 whole entry): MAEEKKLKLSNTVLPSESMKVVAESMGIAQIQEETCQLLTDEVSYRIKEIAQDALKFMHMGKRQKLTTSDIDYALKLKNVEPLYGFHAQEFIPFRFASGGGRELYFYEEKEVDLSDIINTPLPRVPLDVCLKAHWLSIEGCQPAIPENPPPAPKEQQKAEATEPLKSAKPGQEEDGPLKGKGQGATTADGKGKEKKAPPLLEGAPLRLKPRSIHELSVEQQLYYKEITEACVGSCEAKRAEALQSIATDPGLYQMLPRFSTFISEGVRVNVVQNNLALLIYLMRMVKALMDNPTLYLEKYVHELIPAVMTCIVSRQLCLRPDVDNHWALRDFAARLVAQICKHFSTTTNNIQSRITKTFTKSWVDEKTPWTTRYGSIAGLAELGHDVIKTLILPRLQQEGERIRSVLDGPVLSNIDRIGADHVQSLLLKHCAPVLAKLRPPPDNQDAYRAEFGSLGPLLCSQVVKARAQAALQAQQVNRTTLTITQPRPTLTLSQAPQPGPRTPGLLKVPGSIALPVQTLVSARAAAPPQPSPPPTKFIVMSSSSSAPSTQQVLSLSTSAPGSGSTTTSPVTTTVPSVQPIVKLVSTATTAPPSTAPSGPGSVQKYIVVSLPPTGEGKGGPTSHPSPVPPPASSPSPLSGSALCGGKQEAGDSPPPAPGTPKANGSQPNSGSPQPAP

[12] = target: Heat shock 70 kDa protein 4L (Homo sapiens) (UniProt O95757); test: Binding affinity to Hspa4l (unknown origin) assessed as fold change in protein upregulation at 200 uM preincubated for 2 hrs followed by pronase addition and measured after 30 mins by coomassie blue staining based SDS-PAGE gel analysis
[13] = target: Deoxycytidine kinase (Homo sapiens) (UniProt P27707); test: Binding affinity to Dck (unknown origin) at 200 uM preincubated for 2 hrs followed by pronase addition and measured after 30 mins by coomassie blue staining based SDS-PAGE gel analysis
[14] = target: Stress-induced-phosphoprotein 1 (Homo sapiens) (UniProt P31948); test: Binding affinity to Stip1 (unknown origin) assessed as fold change in protein upregulation at 200 uM preincubated for 2 hrs followed by pronase addition and measured after 30 mins by coomassie blue staining based SDS-PAGE gel analysis
[15] = target: CD2-associated protein (Homo sapiens) (UniProt Q9Y5K6); test: Binding affinity to Cd2ap (unknown origin) at 200 uM preincubated for 2 hrs followed by pronase addition and measured after 30 mins by coomassie blue staining based SDS-PAGE gel analysis
Sequence of CD2-associated protein (Homo sapiens) (Q9Y5K6 whole entry): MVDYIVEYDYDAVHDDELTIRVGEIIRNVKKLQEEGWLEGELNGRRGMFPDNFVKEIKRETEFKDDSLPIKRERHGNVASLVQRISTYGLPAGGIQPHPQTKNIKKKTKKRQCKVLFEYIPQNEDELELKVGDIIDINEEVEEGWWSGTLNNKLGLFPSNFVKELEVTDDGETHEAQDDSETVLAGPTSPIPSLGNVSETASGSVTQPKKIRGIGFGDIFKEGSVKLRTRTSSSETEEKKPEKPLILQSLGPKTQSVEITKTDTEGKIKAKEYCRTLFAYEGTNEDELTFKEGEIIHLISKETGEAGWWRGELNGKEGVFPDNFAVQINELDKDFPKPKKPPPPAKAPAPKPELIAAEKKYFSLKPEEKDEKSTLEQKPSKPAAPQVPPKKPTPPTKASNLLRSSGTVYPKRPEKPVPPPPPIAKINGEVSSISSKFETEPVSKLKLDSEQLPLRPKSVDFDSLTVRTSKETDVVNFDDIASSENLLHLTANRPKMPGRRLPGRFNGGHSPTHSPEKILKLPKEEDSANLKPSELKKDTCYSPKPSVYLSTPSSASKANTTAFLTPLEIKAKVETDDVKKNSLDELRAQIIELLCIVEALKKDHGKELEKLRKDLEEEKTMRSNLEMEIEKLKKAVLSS

[16] = test system: NRK-52E; test: Anti-renal-fibrosis activity in TGF-beta1 induced rat NRK-52E cells assessed as downregulation of collagen I protein level by Western blot analysis; type: functional, cell-based; conditions: dose 5-40 µM
[17] = target: Tropomyosin alpha-3 chain (Homo sapiens) (UniProt P06753); test: Binding affinity to Tpm3 (unknown origin) at 200 uM preincubated for 2 hrs followed by pronase addition and measured after 30 mins by coomassie blue staining based SDS-PAGE gel analysis
Sequence of Tropomyosin alpha-3 chain (Homo sapiens) (P06753 whole entry): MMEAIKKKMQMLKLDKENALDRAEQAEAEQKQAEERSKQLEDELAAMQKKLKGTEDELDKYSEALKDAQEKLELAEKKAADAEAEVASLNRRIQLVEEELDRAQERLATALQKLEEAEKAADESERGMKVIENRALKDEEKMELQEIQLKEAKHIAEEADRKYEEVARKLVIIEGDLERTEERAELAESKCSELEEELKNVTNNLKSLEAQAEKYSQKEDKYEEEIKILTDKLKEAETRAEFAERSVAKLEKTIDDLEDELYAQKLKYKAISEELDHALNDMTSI

[18] = target: Armadillo repeat-containing protein 10 (Homo sapiens) (UniProt Q8N2F6); test: Binding affinity to Armc10 (unknown origin) at 200 uM preincubated for 2 hrs followed by pronase addition and measured after 30 mins by coomassie blue staining based SDS-PAGE gel analysis
Sequence of Armadillo repeat-containing protein 10 (Homo sapiens) (Q8N2F6 whole entry): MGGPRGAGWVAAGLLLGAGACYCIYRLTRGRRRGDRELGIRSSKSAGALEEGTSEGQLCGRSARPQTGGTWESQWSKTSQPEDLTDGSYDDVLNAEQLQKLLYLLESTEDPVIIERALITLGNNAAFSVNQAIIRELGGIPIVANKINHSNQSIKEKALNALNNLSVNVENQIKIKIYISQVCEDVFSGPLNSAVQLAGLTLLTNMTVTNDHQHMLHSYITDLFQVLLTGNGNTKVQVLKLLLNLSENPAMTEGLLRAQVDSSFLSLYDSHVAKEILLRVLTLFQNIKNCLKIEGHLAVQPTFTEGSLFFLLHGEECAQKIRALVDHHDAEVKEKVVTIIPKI

[19] = test system: NRK-52E; test: Anti-renal-fibrosis activity in TGF-beta1 induced rat NRK-52E cells assessed as downregulation of fibronectin expression at 40 uM; type: functional, cell-based
[20] = target: Protein farnesyltransferase/geranylgeranyltransferase type-1 subunit alpha (Homo sapiens) (UniProt P49354); test: Binding affinity to FNTA (unknown origin) assessed as fold change in protein upregulation at 200 uM preincubated for 2 hrs followed by pronase addition and measured after 30 mins by coomassie blue staining based SDS-PAGE gel analysis
[21] = test system: NRK-52E; test: Anti-renal-fibrosis activity in TGF-beta1 induced rat NRK-52E cells assessed as downregulation of fibronectin protein level by Western blot analysis; type: functional, cell-based; conditions: dose 5-40 µM
[22] = target: Kinesin-like protein KIF21A (Homo sapiens) (UniProt Q7Z4S6); test: Binding affinity to Kif21a (unknown origin) at 200 uM preincubated for 2 hrs followed by pronase addition and measured after 30 mins by coomassie blue staining based SDS-PAGE gel analysis
[23] = target: Na(+)/H(+) exchange regulatory cofactor NHE-RF1 (Homo sapiens) (UniProt O14745); test: Binding affinity to Slc9a3r1 (unknown origin) assessed as fold change in protein upregulation at 200 uM preincubated for 2 hrs followed by pronase addition and measured after 30 mins by coomassie blue staining based SDS-PAGE gel analysis
Sequence of Na(+)/H(+) exchange regulatory cofactor NHE-RF1 (Homo sapiens) (O14745 whole entry): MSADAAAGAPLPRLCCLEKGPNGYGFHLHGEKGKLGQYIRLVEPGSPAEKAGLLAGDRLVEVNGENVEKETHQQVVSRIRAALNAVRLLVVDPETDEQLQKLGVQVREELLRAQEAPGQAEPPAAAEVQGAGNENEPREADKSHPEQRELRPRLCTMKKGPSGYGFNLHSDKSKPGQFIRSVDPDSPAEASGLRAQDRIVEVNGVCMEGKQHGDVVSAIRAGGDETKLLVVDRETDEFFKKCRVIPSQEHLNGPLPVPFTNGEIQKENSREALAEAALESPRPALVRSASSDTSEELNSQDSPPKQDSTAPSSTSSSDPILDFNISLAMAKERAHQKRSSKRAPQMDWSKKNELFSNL

[24] = target: Chromosome transmission fidelity protein 18 homolog (Homo sapiens) (UniProt Q8WVB6); test: Binding affinity to Chtf18 (unknown origin) assessed as fold change in protein upregulation at 200 uM preincubated for 2 hrs followed by pronase addition and measured after 30 mins by coomassie blue staining based SDS-PAGE gel analysis
Sequence of Chromosome transmission fidelity protein 18 homolog (Homo sapiens) (Q8WVB6 whole entry): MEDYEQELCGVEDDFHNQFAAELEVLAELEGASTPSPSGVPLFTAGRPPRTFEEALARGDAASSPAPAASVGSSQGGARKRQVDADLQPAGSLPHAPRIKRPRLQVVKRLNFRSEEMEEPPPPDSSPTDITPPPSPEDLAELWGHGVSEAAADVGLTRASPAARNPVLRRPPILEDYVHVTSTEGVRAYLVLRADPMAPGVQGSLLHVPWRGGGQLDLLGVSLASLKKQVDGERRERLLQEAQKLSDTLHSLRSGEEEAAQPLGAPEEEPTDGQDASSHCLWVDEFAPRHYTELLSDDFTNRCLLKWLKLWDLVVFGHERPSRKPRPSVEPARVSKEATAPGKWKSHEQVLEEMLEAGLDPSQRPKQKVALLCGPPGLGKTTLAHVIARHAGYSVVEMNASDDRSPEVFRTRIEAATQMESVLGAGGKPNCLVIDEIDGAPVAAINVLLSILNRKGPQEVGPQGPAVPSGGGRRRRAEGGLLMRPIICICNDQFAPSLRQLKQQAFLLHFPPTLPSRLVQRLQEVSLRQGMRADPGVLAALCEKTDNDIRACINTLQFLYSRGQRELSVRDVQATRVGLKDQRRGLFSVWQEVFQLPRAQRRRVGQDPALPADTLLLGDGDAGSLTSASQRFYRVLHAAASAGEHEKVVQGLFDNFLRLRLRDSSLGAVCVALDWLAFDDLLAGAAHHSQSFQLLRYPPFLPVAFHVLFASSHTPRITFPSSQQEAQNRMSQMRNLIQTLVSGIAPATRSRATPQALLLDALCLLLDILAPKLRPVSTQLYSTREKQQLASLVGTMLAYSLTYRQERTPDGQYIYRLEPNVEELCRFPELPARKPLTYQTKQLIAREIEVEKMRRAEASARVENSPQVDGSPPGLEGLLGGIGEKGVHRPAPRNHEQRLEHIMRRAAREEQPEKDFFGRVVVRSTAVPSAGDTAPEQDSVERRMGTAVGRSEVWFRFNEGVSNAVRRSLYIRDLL

[25] = test system: NRK-52E; test: Anti-renal-fibrosis activity in TGF-beta1 induced rat NRK-52E cells assessed as downregulation of alpha-SMA protein level by Western blot analysis; type: functional, cell-based; conditions: dose 5-40 µM
[26] = test system: NRK-52E; test: Anti-renal-fibrosis activity in TGF-beta1 induced rat NRK-52E cells assessed as downregulation of alpha-SMA protein level at 20 uM by Western blot analysis; type: functional, cell-based
[27] = test system: NRK-52E; test: Anti-renal-fibrosis activity in TGF-beta1 induced Lamp2 knocked down rat NRK-52E cells assessed as downregulation of collagen I expression at 40 uM; type: functional, cell-based
[28] = test system: RAW264.7; test: Antiinflammatory activity against LPS-induced mouse RAW264.7 cells assessed as reduction in COX-2 protein level at 20 uM; type: functional, cell-based

Activity [1]: Active
fold change (FC) [2]: 1.25
fold change (FC) [3]: 1.36
Activity [4]: Active
fold change (FC) [5]: 1.32
Activity [6]: Active
fold change (FC) [8]: 1.76
Activity [9]: Active
fold change (FC) [10]: 1.29
Activity [11]: Active
fold change (FC) [12]: 1.28
Activity [13]: Active
fold change (FC) [14]: 1.33
Activity [15]: Active
Activity [17]: Active
Activity [18]: Active
fold change (FC) [20]: 1.26
Activity [22]: Active
fold change (FC) [23]: 3.04
fold change (FC) [24]: 2.05
Structure (SMILES): COc1c(O)nc2c(O)cccc2c1OC
Activity [7]: inactive
Activity [16]: Dose-Dependent Effect
Activity [19]: Active
Activity [21]: Dose-Dependent Effect
Activity [25]: Dose-Dependent Effect
Activity [26]: Active
Activity [27]: inactive
Activity [28]: Active
